Measured values: patent publication US8344022B2, “Vaginal health products” (Kimberly-Clark Worldwide, Inc., priority 2004, dated 2013)
Several values for one entry are separate records, joined by “and”; a condition that tells them apart may be missing. Equal values may be shown once. Entries after “also recorded” stand apart in the source; their conditions may differ.

How the values were obtained:
ME-180 cells = test: ME-180 cell growth (cell counting) with vitamin E or vitamin A derivatives; format: cell-based, human; details: for effect on ME-180 cell growth: 1 nM, 10 nM and 100 nM; for ME-180 cell growth vs negative control (FIG. 2): 1 μM or 10 μM, two days; for ME-180 cell growth: three days
Method: Cell Culture. Human cervical epithelial cells (ME-180, ATCC) were propagated in culture at 37° C. using 5% CO2 in McCoy's 5A media (Invitrogen) with 10% heat-inactivated fetal bovine serum (Invitrogen). Vitamin E was purchased from ICN Biomedicals. Vitamin E stock solutions were made up in absolute ethanol.
ME-180 cells were incubated with vitamin E at various concentrations for three days. At 10 μM vitamin E, ME-180 cell growth was inhibited (data not shown). However, this may be due to the presence of a larger concentration of ethanol (used as a solvent for vitamin E) in the media. […] At 1 μM vitamin E, ME-180 cell growth was enhanced more than the corresponding negative control. At 100 nM vitamin E, cell growth was not effected in comparison to the negative control. Therefore, a concentration of 1 μM vitamin E was used to measure changes in RNA expression over a 24 hour period.
Cell Proliferation of ME-180 Cells. ME-180 cells were incubated with vitamin A derivatives for a period of up to 3 days. ME-180 cells were counted on each day.

mucin-4 (MUC-4) = test: RT-PCR expression assay in ME-180 cells: mucin-4; format: cell-based, human; details: for MUC-4 expression: 100 nM vitamin A; for mucin-4 expression: 1 μM vitamin E, 24 hours
Method: (§1) RNA Extraction from ME-180 cells. ME-180 cells were plated at 2×10^5 cells per T75 flask (15 mL total volume) and were allowed to propagate for four days. On day four, the media was removed. Fifteen mL of McCoy's SA media with or without 10% FBS containing 0 or 1 μM vitamin E were added to ME-180 cells in duplicate. ME-180 cells were incubated with these solutions for 24 hours. The media was removed, and 1500 μL of lysis buffer was added to the flasks. The cells were scraped off of the flask with a cell scraper. The RNA was isolated using the Ambion RNAqueous kit according to the manufacturer's instructions. Precipitated RNA was resuspended in DEPC-treated water with 1 μL of RNase inhibitor.
(§2) Reverse Transcription of RNA. Approximately 7 μL of RNA was incubated with 3 μL of primer at 80° C. for 10 minutes then immediately placed on ice. A master mix containing 4 μL DEPC water, 4 μL 5× reaction buffer, 1 μL dNTPs, 1 μL of RNase inhibitor, and 1 μL of reverse transcriptase was made for the reactions. Ten μL of master mix was added to the RNA/primer solution and placed at 42° C. for 2 hours. The resulting cDNA was incubated with 3.5 μL of NaOH solution at 70° C. for 10 minutes to hydrolyze the remaining RNA. Five μL of 0.5M Tris/EDTA was added to neutralize the solution. To precipitate the cDNA, 125 μL of 3M NH4OAc, 5 μL of linear polyacrylamide, and 700 μL of absolute ethanol were added. The solutions were vortexed and placed at −20° C. overnight. Samples were centrifuged at 14000 rpm at 4° C. for 30 minutes. The ethanol was removed, and the samples were allowed to dry for 10 minutes. The cDNA was resuspended in 10-12 μL of PCR grade water.
Polymerase Chain Reaction (PCR). A master mix using the Advantage 2 PCR kit (Ambion) was made for the PCR reactions containing 37-38 μL of PCR grade water, 5 μL of 10×PCR buffer, 1 μL of dNTPs, 1 μL of β-actin primers (10 μM, optional control), and 2 μL of test primers (10 μM, P2Y2, or Mucin-4 (MUC-4)). Two microliters of cDNA and […] of DNA polymerase were added. Cycling conditions were as follows: 5 min at 95° C.; 25-30 cycles (30 sec at 95° C., 1 min at 65° C., 3 min at 68° C.); 5 min at 68° C.
RNA was isolated (as described above) from ME-180 cervical cells treated with 0 nM or 100 nm vitamin A in the absence of serum. The RNA was reverse transcribed to form cDNA, and PCR techniques (as described above) were used to determine the effect of vitamin A on the expression of mucin-4 (MUC-4).

P2Y2 receptor gene = test: RT-PCR expression assay in ME-180 cells: P2Y2; format: cell-based, human
Method: as §1, §2
Polymerase Chain Reaction (PCR). A master mix using the Advantage 2 PCR kit (Ambion) was made for the PCR reactions containing 37-38 μL of PCR grade water, 5 μL of 10×PCR buffer, 1 μL of dNTPs, 1 μL of β-actin primers (10 μM, optional control), and 2 μL of test primers (10 μM, P2Y2, or Mucin-4 (MUC-4)). Two microliters of cDNA and […] of DNA polymerase were added. […]

[1] = test system: vascular endothelial growth factor (VEGF); test: RT-PCR expression assay in ME-180 cells: VEGF; format: cell-based, human
[2] = test system: estrogen receptor alpha (ER-α); test: RT-PCR expression assay in ME-180 cells: ER-α; format: cell-based, human; details: 100 nM vitamin A, no serum, 4, 8 and 16 hours
Method: Cell samples exposed to vitamin A in the absence of serum were also tested for expression of other genes that may also affect atrophic vaginitis. Using primers designed to amplify the estrogen receptor alpha (ER-α) gene, PCR was performed using the RNA samples from cells starved of serum. The ER-α product (650 bp) was visible in the control (FIG. 4, lane 2), where the template was cDNA from ME-180 cells cultured in the presence of serum. […] However, in the samples that were exposed to 100 nM vitamin A but no serum for 4, 8, and 16 hours, the […] gene was expressed (Lanes 4-6, respectively). […] Increasing the amount of estrogen receptors on epithelial cells in the genital tract may increase the probability that a receptor will be activated by estrogen.

DTR = test: RT-PCR expression assay in ME-180 cells: DTR; format: cell-based, human; details: 1 μM vitamin E, 24 hours, absence of serum
human skin keratinocytes = test: Keratinocyte proliferation, 96-well Cell Titer 96 assay; format: cell-based; details: 1×10^−4 to 1×10^−6 M
Method: The proliferative response of these human skin keratinocytes to the test compounds was measured in a 96-well assay system using keratinocyte basal medium (KBM, Clonetics, catalog number CC-3103) as a control. […] In addition, 100 μl of vehicle KBM was added to 5 wells as control. […] The spectrophotometric absorbance of each well was read at 490 nm.

[3] = test system: collagen production in human skin fibroblast cell line; test: Collagen production by human skin fibroblasts (Takara EIA MK101); format: cell-based; details: 1×10^−4 to 1×10^−6 M
Method: The cells were first grown in a 96-well assay system using Dulbecco's Modified Eagle's Medium (DMEM) with 10% fetal bovine serum (FBS) both purchased from Sigma Chemical Co, St. Louis, Mo. Serum-free DMEM was used as a control.
The assay was done by using the recommended 20 ul of the supernatant from each well of the 96-well plate. Standard buffer and stop solutions were freshly prepared before running the assay. 100 ul of antibody-POD conjugate solution (supplied with the kit) was added into the wells using pre antibody coated 96 well plate (supplied with the kit). 20 ul of standard and test solutions (from the other 96-well plate containing fibroblasts) were added to appropriate wells. Plate was mixed gently, sealed and incubated for three hrs. at 37° C.
After incubation each well was washed carefully four times with PBS buffer (400 ul). All the wells were completely emptied at the end of washing from any liquid.
100 ul of substrate solution (hydrogen peroxide and tetramethylbenzidine in a buffer solution, supplied with the kit) was added to each well and the plate was incubated for 15 minutes. At this point 100 ul of stop solution (freshly prepared 1N H2SO4) was added to each well in the same order as substrate. The plate was gently mixed and absorbance was read at 450 nm.

[4] = test system: fibronectin production in human skin fibroblast cell line; test: Fibronectin production by human skin fibroblasts (Takara EIA MK115); format: cell-based; details: all concentrations tested, vs control
Method: The cells were first grown in a 96-well assay system using Dulbecco's Modified Eagle's Medium (DMEM) with 10% fetal bovine serum (FBS) both purchased from Sigma Chemical Co, St. Louis, Mo. Serum-free DMEM was used as a control. […] The fibronectin assay was performed using the recommended 100 μl of the supernatant from each well of the 96-well plate. Standard buffer and stop solutions were freshly prepared before running the assay. A pre-antibody-coated 96 well plate (provided with the kit) was used to transfer the test samples and control. The plate was mixed, sealed and incubated for 1 hour at 37° C. All the wells were washed after removing sample solutions, 3 times (300 μl) with washing buffer. 100 ul of antibody-POD conjugate solution was added into the wells. Plate was mixed, sealed and incubated for one hour at 37° C. Solutions were removed and the wells were washed 3 times with washing buffer. All the wells were completely emptied at the end of washing from any liquid. 100 μl of substrate solution (hydrogen peroxide and tetramethylbenzidine in a buffered solution) was added to each well and the plate was incubated at room temperature for 15 minutes. 100 μl of stop solution (freshly prepared 1N H2SO4) was added to each well in the same order as substrate. The plate was gently mixed and absorbance was read at 450 nm.

stratum corneum = test: Dansyl chloride cell renewal study in healthy female volunteers; format: in vivo, human
Text: The stratum corneum renewal time is the time taken for the whole thickness of the stratum corneum to be exfoliated and replaced by new cells from the dividing epidermis. This renewal time is a fundamental indicator of skin health. […] See Jansen L H, Hojyo-Tomoko M T, Kligman A M., Improved fluorescence staining technique for estimating turnover of the human stratum corneum, Br J Dermatol., 90, 9-12, 1974; Ridge B D, Batt M D, Palmer H E, Jarrett A, The dansyl chloride technique for stratum corneum renewal as an indicator of changes in epidermal mitotic activity following topical treatment., Br J Dermatol., 118, 167-74, 1988; Grove G L, Kligman A M, Age-associated changes in human epidermal cell renewal., J Geron., 38, 137-142, 1983. The time required for the dye to disappear is therefore an indication of the turnover time of the stratum corneum. Therefore, any differences in the time required for the dye to disappear from treated and non-treated sites can be considered to be an expression of that product's ability to enhance epidermal renewal.
A dansyl chloride cell renewal study was conducted in healthy female volunteers ranging from 43-64 years of age. The study consisted of a two-week treatment period during which time the products were applied topically twice daily, including on weekend days, to the test sites. The area of application was designated, approximately 5 cm×10 cm on the upper inner arm. The other arm served as a control with no product application. […] Eight females received jasmonic acid and seven females received gibberellic acid.
The time required for a marker dye to disappear was used as the measure of cell renewal rate.

[5] = 1 μM vitamin E, 24 hours, absence of serum

CC1=C(/C=C/C(C)=C\C=C\C(C)=C\C(=O)O)C(C)(C)CCC1 [9-cis-retinoic acid]
effect on ME-180 cell growth (ME-180 cells): little effect

CC1=C(/C=C/C(C)=C/C=C/C(C)=C/C(=O)O)C(C)(C)CCC1 [trans-retinoic acid]
toxicity (conclusion of the ME-180 experiments) (ME-180 cells): nontoxic | ME-180 cell growth compared with other agents or unexposed control (ME-180 cells; 1 nM to 100 nM experiment): growing slightly faster | effect on ME-180 cell growth (ME-180 cells): little effect | ME-180 cell growth vs negative control (FIG. 2) (ME-180 cells): more cells were present | MUC-4 expression (mucin-4 (MUC-4); absence of serum, 4 hours or 8 hours): detectable | MUC-4 expression (mucin-4 (MUC-4); absence of serum, 16 hours): decreases but is still detectable | P2Y2 expression (P2Y2 receptor gene; 100 nM vitamin A, in the presence and in the absence of serum): increase | VEGF expression ([1]; 100 nM vitamin A): increased | ER-α expression [2]: expressed; also recorded: increase

vitamin E
ME-180 cell growth (ME-180 cells; 100 nM vitamin E, vs negative control): not effected | ME-180 cell growth (ME-180 cells; 1 μM vitamin E, vs negative control): enhanced | ME-180 cell growth (ME-180 cells; 10 μM vitamin E, ethanol control also showed no growth): inhibited | mucin-4 expression (mucin-4 (MUC-4); absence of serum): increases; also recorded: significantly increased | mucin-4 expression (mucin-4 (MUC-4); presence of serum): no significant changes | P2Y2 expression (P2Y2 receptor gene; [5]): no observable difference | P2Y2 expression (P2Y2 receptor gene; 1 μM vitamin E, 24 hours, presence of serum): no significant changes | VEGF expression [1, 5]: no observable difference | DTR expression (DTR): no observable difference

CC1=C(/C=C/C(C)=C/C=C/C(C)=C\C(=O)O)C(C)(C)CCC1 [13-cis-retinoic acid]
effect on ME-180 cell growth (ME-180 cells): little effect | ME-180 cell growth vs negative control (FIG. 2) (ME-180 cells): did not grow as well as the negative control | toxicity to ME-180 cells (ME-180 cells; micromolar concentrations): toxic

C=C1C[C@]23C[C@@]1(O)CC[C@H]2[C@@]12C=C[C@H](O)[C@@](C)(C(=O)O1)[C@H]2[C@@H]3C(=O)O [gibberellic acid, Gibberellin A3]
cell proliferating activity on human keratinocytes (summary in words) (human skin keratinocytes): strong cell proliferating activity | collagen production in human fibroblasts (summary in words) [3]: stimulate collagen production | fibronectin production in human fibroblasts (summary in words) [4]: effective | skin irritation or redness (stratum corneum; 0.25% topical twice daily, two weeks, all study volunteers): no visible sign of any skin irritation or redness | RENEWAL, time for cell renewal of treated skin (stratum corneum; individual patients (one value per patient #), 0.25% in hyaluronic acid (0.5% aqueous solution), topical twice daily, upper inner arm, listed as GA): 14 Days (2×) and 12 Days (2×) and 19 Days and 17 Days and 21 Days | faster cell renewal rate over control (stratum corneum; overall, 0.25% topical, vs untreated arm): 20% | reduction in time required for cell renewal vs untreated control (stratum corneum; vs volunteers' control without treatment): about 20%
